According to patent US8598154B2 (Corcept Therapeutics, Inc., priority 2010, dated 2013):

Tests used:
[1] = molecular target: T1, Human Recombinant Glucocorticoid Receptor (Homo sapiens, UniProt P04150); experiment: Glucocorticoid receptor binding displacement assay with 3H-dexamethasone; details: displacement of 2.5 nM 3H-dexamethasone; Ki from IC50 by Cheng-Prusoff; read-out: GR Binding Ki
T1 construct: This GR was a full-length steroid hormone receptor likely to be associated with heat-shock and other endogenous proteins; host or cells: baculovirus-infected insect cells
T1 sequence (P04150 1-777): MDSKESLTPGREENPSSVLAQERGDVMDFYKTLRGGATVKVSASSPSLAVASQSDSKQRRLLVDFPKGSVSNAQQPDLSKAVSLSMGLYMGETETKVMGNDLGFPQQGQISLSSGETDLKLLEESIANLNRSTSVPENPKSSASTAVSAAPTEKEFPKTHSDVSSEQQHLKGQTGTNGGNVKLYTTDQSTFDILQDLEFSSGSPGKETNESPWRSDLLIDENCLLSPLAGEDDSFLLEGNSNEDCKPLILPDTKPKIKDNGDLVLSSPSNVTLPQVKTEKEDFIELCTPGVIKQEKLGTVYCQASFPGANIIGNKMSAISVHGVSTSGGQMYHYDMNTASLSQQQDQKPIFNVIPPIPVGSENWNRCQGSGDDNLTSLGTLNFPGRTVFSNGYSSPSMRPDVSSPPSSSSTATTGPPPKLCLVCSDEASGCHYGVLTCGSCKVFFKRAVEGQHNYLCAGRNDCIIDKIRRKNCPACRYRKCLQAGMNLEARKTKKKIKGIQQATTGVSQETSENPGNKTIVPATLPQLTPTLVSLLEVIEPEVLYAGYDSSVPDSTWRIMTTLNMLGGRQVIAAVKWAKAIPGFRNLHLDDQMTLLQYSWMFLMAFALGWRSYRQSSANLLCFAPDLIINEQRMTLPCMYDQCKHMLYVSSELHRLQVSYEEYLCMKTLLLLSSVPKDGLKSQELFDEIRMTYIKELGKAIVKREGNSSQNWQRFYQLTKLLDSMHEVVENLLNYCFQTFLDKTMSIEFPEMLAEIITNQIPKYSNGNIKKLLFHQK
Procedure: The source of the receptor was recombinant baculovirus-infected insect cells. This GR was a full-length steroid hormone receptor likely to be associated with heat-shock and other endogenous proteins.
For the Primary Screen, test compounds were tested at 1 μM in duplicate. These compounds were diluted from 10 mM stock in 100% DMSO. After dilution to 100 μM, 5 μl were added to 245 μl assay buffer to obtained 2 μM compound and 2% DMSO.
For the IC50 determinations, test compounds were tested at 6 concentrations in duplicate (concentration range depends on % inhibition binding that was obtained in the Primary Screen). Test compounds were diluted from 10 mM stock in 100% DMSO. The tested solutions were prepared at 2× final assay concentration in 2% DMSO/assay buffer.
All reagents and the assay plate were kept on ice during the addition of reagents. […] After the additions, the incubation mixture was mixed and incubated for 2.5 hrs at 4° C.
After 2.5 hrs incubation, unbound counts were removed with dextran coated charcoal (DCC) as follows: 25 μl of DCC solution (10% DCC in assay buffer) was added to all wells and mixed (total volume 225 μl). The plate was centrifuged at 4000 rpm for 10 minutes at 4° C. 75 μl of the supernatants (i.e.⅓ of total volume) was carefully pipetted into an optiplate. 200 μl of scintillation cocktail were added (Microscint-40, Packard Bioscience. B.V.). The plate was vigorously shaken for approx. 10 minutes and counted on Topcount.
The IC50 values were converted to Ki (the inhibition constant) using the Cheng-Prusoff equation. Test results are presented in Tablel.
Reagents: Assay buffer: 10 mM potassium phosphate buffer pH 7.6 containing 5 mM DTT, 10 mM sodium molybdate, 100 μM EDTA and 0.1% BSA.

[2] = molecular target: T2, glucocorticoid receptors (GR) in SW1353/MMTV-5 cells (Homo sapiens, UniProt P04150); experiment: GR functional assay using SW1353/MMTV-5 cells (MMTV-luciferase reporter); format: cell-based
T2 construct: contains endogenous glucocorticoid receptors; endogenous in cells; host or cells: SW1353/MMTV-5 (human chondrosarcoma, stably transfected with the pMAMneo-Luc reporter only)
T2 sequence (P04150 1-777): T1 sequence (P04150 1-777)
Procedure: SW1353/MMTV-5 is an adherent human chondrosarcoma cell line that contains endogenous glucocorticoid receptors. It was transfected with a plasmid (pMAMneo-Luc) encoding firefly luciferase located behind a glucocorticoid-responsive element (GRE) derived from a viral promoter (long terminal repeat of mouse mammary tumor virus). A stable cell line SW1353/MMTV-5 was selected with geneticin, which was required to maintain this plasmid.
SW1353/MMTV-5 cells were distributed in 96-well plates and incubated in medium (without geneticin) for 24 hrs (in the absence of CO2).

Structure (SMILES)	Ki [1] [nM]	Ki [2] [nM]
Cc1cc(COC[C@]23Cc4cnn(-c5ccc(F)cc5)c4C=C2CCN(S(=O)(=O)c2ccc(N4CC[C@@H](F)C4)nc2)C3)no1 [Example 35, (R)-1-(4-Fluorophenyl)-6-[6-((R)-3-fluoropyrrolidin-1-yl)-pyridine-3-sulfonyl]-4a-(5-methyl-isoxazol-3-ylmethoxymethyl)-4,4a,5,6,7,8-hexahydro-1H-1,2,6-triaza-cyclopenta[b]naphthalene]	> 1	10 to 50
COC[C@]12Cc3cnn(-c4ccc(F)cc4)c3C=C1CCN(S(=O)(=O)c1cncc(N3CC(O)C3)c1)C2 [Example 36, 1-{5-[(R)-1-(4-Fluorophenyl)-4a-methoxymethyl-1,4,4a,5,6,7,8-hexahydro-1,2,6-triaza-cyclopenta[b]naphthalene-6-sulfonyl]-pyridin-3-yl}-azetidin-3-ol]	0.5 to 1	> 50
COC[C@]12Cc3cnn(-c4ccc(F)cc4)c3C=C1CCN(S(=O)(=O)c1cncc(N3CC(F)C3)c1)C2 [Example 37, (R)-6-[5-(3-Fluoroazetidin-1-yl)-pyridine-3-sulfonyl]-1-(4-fluorophenyl)-4a-methoxymethyl-4,4a,5,6,7,8-hexahydro-1H-1,2,6-triaza-cyclopenta[b]naphthalene]	0.5 to 1	< 10
COC[C@]12Cc3cnn(-c4ccc(F)cc4)c3C=C1CCN(S(=O)(=O)c1cncc(N3CC[C@@H](O)C3)c1)C2 [Example 38, (R)-1-{5-[(R)-1-(4-Fluorophenyl)-4a-methoxymethyl-1,4,4a,5,6,7,8-hexahydro-1,2,6-triaza-cyclopenta[b]naphthalene-6-sulfonyl]pyridine-3-yl}-pyrrolidine-3-ol]	0.5 to 1	10 to 50
COC[C@]12Cc3cnn(-c4ccc(F)cc4)c3C=C1CCN(S(=O)(=O)c1cncc(N3CC[C@H](O)C3)c1)C2 [Example 39, (S)-1-{5-[(R)-1-(4-Fluorophenyl)-4a-methoxymethyl-1,4,4a,5,6,7,8-hexahydro-1,2,6-triaza-cyclopenta[b]naphthalene-6-sulfonyl]pyridine-3-yl}-pyrrolidine-3-ol]	0.5 to 1	> 50
COC[C@]12Cc3cnn(-c4ccc(F)cc4)c3C=C1CCN(S(=O)(=O)c1cncc(N3CC[C@@H](F)C3)c1)C2 [Example 40, (R)-1-(4-Fluorophenyl)-6-[5-((R)-3-fluoropyrrolidin-1-yl)-pyridine-3-sulfonyl]-4a-methoxymethyl-4,4a,5,6,7,8-hexahydro-1H-1,2,6-triaza-cyclopenta[b]naphthalene]	> 1	< 10
COC[C@]12Cc3cnn(-c4ccc(F)cc4)c3C=C1CCN(S(=O)(=O)c1cncc(N3CC[C@H](F)C3)c1)C2 [Example 41, (R)-1-(4-Fluorophenyl)-6-[5-((S)-3-fluoropyrrolidin-1-yl)-pyridine-3-sulfonyl]-4a-methoxymethyl-4,4a,5,6,7,8-hexahydro-1H-1,2,6-triaza-cyclopenta[b]naphthalene]	0.5 to 1	< 10
COC[C@]12Cc3cnn(-c4ccc(F)cc4)c3C=C1CCN(S(=O)(=O)c1ccnc(N3CCCC3)c1)C2 [Example 42, (R)-1-(4-Fluorophenyl)-4a-methoxymethyl-6-(2-pyrrolidin-1-yl-pyridine-4-sulfonyl)-4,4a,5,6,7,8-hexahydro-1H-1,2,6-triaza-cyclopenta[b]naphthalene]	> 1	< 10
COC[C@]12Cc3cnn(-c4ccc(F)cc4)c3C=C1CCN(S(=O)(=O)c1ccnc(N3CC[C@@H](O)C3)c1)C2 [Example 43, (R)-1-{4-[(R)-1-(4-Fluorophenyl)-4a-methoxymethyl-1,4,4a,5,6,7,8-hexahydro-1,2,6-triaza-cyclopenta[b]naphthalene-6-sulfonyl]-pyridin-2-yl}-pyrrolidin-3-ol]	> 1	> 50
COC[C@]12Cc3cnn(-c4ccc(F)cc4)c3C=C1CCN(S(=O)(=O)c1ccnc(N3CC[C@H](O)C3)c1)C2 [Example 44, (S)-1-{4-[(R)-1-(4-Fluorophenyl)-4a-methoxymethyl-1,4,4a,5,6,7,8-hexahydro-1,2,6-triaza-cyclopenta[b]naphthalene-6-sulfonyl]-pyridin-2-yl}-pyrrolidin-3-ol]	> 1	> 50
CN(CCO)C[C@]12Cc3cnn(-c4ccc(F)cc4)c3C=C1CCN(S(=O)(=O)c1ccc(N3CCOCC3)nc1)C2 [Example 45, 2-{[(S)-1-(4-Fluorophenyl)-6-[6-morpholin-4-yl-pyridine-3-sulfonyl)-1,4,5,6,7,8-hexahydro-1,2,6-triaza-cyclopenta[b]naphthalene-4a-ylmethyl]-methyl-amino}-ethanol]	> 1	10 to 50
O=S(=O)(c1ccc(N2CC[C@@H](F)C2)nc1)N1CCC2=Cc3c(cnn3-c3ccc(F)cc3)C[C@]2(CN2CC[C@H](O)C2)C1 [Example 47, (S)-1-{(S)-1-(4-Fluorophenyl)-6-[6-((R)-3-fluoro-pyrrolidin-1-yl)-pyridine-3-sulfonyl]-1,4,5,6,7,8-hexahydro-1,2,6-triaza-cyclopenta[b]naphthalene-4a-ylmethyl}-pyrrolidin-3-ol]	> 1	> 50
CCOC(=O)[C@]12Cc3cnn(-c4ccc(F)cc4)c3C=C1CCN(S(=O)(=O)c1ccc(N3CCOCC3)nc1)C2 [Example 48, (R)-1-(4-Fluorophenyl)-6-(6-morpholin-4-yl-pyridine-3-sulfonyl]-1,4,5,6,7,8-hexahydro-1,2,6-triaza-cyclopenta[b]naphthalene-4a-carboxylic acid ethyl ester]	0.5 to 1	10 to 50
CC(C)OC(=O)[C@]12Cc3cnn(-c4ccc(F)cc4)c3C=C1CCN(S(=O)(=O)c1ccc(N3CCOCC3)nc1)C2 [Example 49, (R)-1-(4-Fluorophenyl)-6-(6-morpholin-4-yl-pyridine-3-sulfonyl]-1,4,5,6,7,8-hexahydro-1,2,6-triaza-cyclopenta[b]naphthalene-4a-carboxylic acid isopropyl ester]	< 0.5	10 to 50
O=C(OC1CCC1)[C@]12Cc3cnn(-c4ccc(F)cc4)c3C=C1CCN(S(=O)(=O)c1ccc(N3CCOCC3)nc1)C2 [Example 50, (R)-1-(4-Fluorophenyl)-6-(6-morpholin-4-yl-pyridine-3-sulfonyl]-1,4,5,6,7,8-hexahydro-1,2,6-triaza-cyclopenta[b]naphthalene-4a-carboxylic acid cyclobutyl ester]	0.5 to 1	< 10
O=C(OCC1CC1)[C@]12Cc3cnn(-c4ccc(F)cc4)c3C=C1CCN(S(=O)(=O)c1ccc(N3CCOCC3)nc1)C2 [Example 51, (R)-1-(4-Fluorophenyl)-6-(6-morpholin-4-yl-pyridine-3-sulfonyl]-1,4,5,6,7,8-hexahydro-1,2,6-triaza-cyclopenta[b]naphthalene-4a-carboxylic acid cyclopropylmethyl ester]	0.5 to 1	< 10
O=C(OCC1CCC1)[C@]12Cc3cnn(-c4ccc(F)cc4)c3C=C1CCN(S(=O)(=O)c1ccc(N3CCOCC3)nc1)C2 [Example 52, (R)-1-(4-Fluorophenyl)-6-(6-morpholin-4-yl-pyridine-3-sulfonyl]-1,4,5,6,7,8-hexahydro-1,2,6-triaza-cyclopenta[b]naphthalene-4a-carboxylic acid cyclobutylmethyl ester]	0.5 to 1	< 10
